# Source: US12295937B2, “Psychoactive medicines and their use for treating psychiatric and neurological conditions and disorders” (Transcend Therapeutics, Inc., priority 2021, dated 2025)
# Read-outs that look alike come from different tables or passages of the source.
# Tests used:
# [1] = Excipient compatibility study (assay, appearance, degradation products); assay type: physicochemical
# Experimental: Analyses were conducted at t=0, 2, 4 and 8 weeks for appearance, assay, and related substances for samples stored in closed vials at 25° C./60% RH and 40° C./75% RH.
# Excipient Compatibility Sample Mixtures: The excipients and API were dispensed individually by weight into 20 mL clear borosilicate (type I) glass vials to fill the appropriate weights as listed in Table 12. Table 12 lists mixtures of API with varied excipients and a stand-alone control sample of API alone. Each excipient mixture sample preparation was conducted using a clean spatula to mix the vial ingredients for 30-60 seconds. Each vial was properly labeled with the description and storage conditions. One vial was used for testing at the initial (t=0) time point. Three vials, closed, were placed at each storage condition to allow sampling at each time point and one vial, closed, was placed at each storage condition for overage.
# [2] = target: T1, 5HT5A (Homo sapiens, UniProt P47898); experiment: GPCRmax screen, agonist mode, 5HT5A; assay type: cell-based; conditions: 1 or 10 mM
# T1 construct: host or cells: PathHunter cell lines
# T1 sequence (P47898 whole entry): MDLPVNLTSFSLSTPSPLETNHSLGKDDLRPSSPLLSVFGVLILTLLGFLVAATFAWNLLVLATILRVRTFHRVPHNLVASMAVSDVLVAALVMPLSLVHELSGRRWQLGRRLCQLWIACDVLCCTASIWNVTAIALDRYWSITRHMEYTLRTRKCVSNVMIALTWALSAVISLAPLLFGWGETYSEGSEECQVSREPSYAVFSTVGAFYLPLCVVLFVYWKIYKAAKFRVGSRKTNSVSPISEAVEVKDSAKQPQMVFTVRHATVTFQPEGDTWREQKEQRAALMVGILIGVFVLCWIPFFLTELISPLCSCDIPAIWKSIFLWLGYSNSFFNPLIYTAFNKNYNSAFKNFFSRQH
# [3] = cited from earlier work
# [4] = target: 168 GPCRs (Homo sapiens, UniProt P49190); experiment: β-arrestin GPCR screen (PathHunter / GPCRmax), antagonist mode
# Chain of 168 GPCRs (Homo sapiens, UniProt P49190) (P49190 25-550): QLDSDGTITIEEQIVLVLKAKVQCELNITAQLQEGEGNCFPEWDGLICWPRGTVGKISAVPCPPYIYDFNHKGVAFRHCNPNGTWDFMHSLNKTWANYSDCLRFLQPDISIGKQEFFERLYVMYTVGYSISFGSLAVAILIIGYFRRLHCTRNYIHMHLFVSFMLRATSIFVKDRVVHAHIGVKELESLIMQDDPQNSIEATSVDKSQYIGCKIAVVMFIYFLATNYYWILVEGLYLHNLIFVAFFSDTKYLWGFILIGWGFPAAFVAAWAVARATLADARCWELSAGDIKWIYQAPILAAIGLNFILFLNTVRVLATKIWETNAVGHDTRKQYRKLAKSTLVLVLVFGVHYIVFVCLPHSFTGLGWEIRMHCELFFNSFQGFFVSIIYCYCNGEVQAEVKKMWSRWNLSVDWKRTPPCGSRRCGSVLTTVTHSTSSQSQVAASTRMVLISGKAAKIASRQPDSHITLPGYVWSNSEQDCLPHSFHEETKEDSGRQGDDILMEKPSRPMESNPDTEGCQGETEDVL
# [5] = target: 168 GPCRs (Homo sapiens, UniProt P30411); experiment: as above; conditions: BDKRB2, Antagonist mode, 10 uM
# Chain of 168 GPCRs (Homo sapiens, UniProt P30411) (P30411 whole entry): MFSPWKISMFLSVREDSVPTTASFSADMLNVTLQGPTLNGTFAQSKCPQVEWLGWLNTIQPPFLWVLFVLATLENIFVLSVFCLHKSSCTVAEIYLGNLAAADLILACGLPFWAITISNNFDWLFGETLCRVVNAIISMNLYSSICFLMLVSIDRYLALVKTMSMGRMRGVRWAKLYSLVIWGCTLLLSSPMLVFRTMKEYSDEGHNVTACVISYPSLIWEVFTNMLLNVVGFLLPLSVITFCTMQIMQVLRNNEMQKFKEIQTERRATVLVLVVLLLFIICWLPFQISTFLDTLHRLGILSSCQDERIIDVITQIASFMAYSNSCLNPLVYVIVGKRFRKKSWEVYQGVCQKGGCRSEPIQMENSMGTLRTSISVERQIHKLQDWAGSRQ
# [6] = target: 168 GPCRs (Homo sapiens, UniProt Q8TDS5); experiment: as above; conditions: OXER1; Antagonist; 1 uM
# Chain of 168 GPCRs (Homo sapiens, UniProt Q8TDS5) (Q8TDS5 whole entry): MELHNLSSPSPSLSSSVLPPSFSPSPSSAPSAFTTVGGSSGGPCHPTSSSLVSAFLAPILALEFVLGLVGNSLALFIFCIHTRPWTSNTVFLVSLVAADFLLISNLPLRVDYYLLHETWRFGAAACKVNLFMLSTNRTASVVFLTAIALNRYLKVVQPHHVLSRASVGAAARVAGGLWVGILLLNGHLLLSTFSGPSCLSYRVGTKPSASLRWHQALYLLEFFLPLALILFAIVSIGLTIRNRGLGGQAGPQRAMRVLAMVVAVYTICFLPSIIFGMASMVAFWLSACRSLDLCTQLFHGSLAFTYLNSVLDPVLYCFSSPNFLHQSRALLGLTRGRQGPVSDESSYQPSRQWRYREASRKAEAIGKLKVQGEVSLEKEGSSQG
# [7] = target: 168 GPCRs (Homo sapiens, UniProt P30874); experiment: as above; conditions: SSTR2; Antagonist; 1 uM
# [8] = target: 168 GPCRs (Homo sapiens, UniProt P32248); experiment: as above; conditions: CCR7, Antagonist mode, 10 uM
# Chain of 168 GPCRs (Homo sapiens, UniProt P32248) (P32248 25-378): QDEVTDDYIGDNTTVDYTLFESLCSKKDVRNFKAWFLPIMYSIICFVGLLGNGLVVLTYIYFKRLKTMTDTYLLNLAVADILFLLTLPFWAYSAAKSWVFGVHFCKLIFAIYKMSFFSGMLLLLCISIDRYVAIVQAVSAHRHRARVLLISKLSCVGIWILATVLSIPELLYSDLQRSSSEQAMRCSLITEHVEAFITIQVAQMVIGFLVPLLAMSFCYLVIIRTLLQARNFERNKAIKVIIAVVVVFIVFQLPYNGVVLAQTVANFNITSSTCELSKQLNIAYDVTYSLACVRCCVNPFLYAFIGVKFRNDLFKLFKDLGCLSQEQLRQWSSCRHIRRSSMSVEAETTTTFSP
# [9] = target: 168 GPCRs (Homo sapiens, UniProt Q16602); experiment: as above; conditions: CALCRL-RAMP2, Antagonist mode, 10 uM
# Chain of 168 GPCRs (Homo sapiens, UniProt Q16602) (Q16602 23-461): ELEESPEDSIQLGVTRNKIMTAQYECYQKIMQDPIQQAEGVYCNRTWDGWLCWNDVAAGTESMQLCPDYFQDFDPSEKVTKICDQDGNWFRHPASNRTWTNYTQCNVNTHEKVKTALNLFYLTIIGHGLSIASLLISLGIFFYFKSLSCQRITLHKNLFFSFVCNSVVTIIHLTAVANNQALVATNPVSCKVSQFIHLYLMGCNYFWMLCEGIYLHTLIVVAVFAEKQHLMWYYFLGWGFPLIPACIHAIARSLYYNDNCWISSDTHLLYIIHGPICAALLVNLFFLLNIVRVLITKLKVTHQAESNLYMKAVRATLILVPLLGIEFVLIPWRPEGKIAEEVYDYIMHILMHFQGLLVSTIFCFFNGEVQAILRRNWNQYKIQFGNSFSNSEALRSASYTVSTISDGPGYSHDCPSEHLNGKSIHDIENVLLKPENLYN
# [10] = target: 168 GPCRs (Homo sapiens, UniProt P30556); experiment: as above
# Chain of 168 GPCRs (Homo sapiens, UniProt P30556) (P30556 whole entry): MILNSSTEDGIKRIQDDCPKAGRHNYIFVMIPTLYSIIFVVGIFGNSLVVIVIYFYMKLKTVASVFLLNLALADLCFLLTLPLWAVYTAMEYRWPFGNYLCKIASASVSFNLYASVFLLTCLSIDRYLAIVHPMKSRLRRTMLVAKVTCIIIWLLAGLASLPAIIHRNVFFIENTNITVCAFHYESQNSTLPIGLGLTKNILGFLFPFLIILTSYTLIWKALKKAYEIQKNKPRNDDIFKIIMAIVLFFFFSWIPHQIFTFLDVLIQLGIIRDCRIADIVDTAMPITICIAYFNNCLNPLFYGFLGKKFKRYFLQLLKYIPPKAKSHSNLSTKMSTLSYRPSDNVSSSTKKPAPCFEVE
# [11] = target: 168 GPCRs (Homo sapiens, UniProt O43603); experiment: as above; conditions: GALR2, Antagonist mode, 10 uM
# Chain of 168 GPCRs (Homo sapiens, UniProt O43603) (O43603 whole entry): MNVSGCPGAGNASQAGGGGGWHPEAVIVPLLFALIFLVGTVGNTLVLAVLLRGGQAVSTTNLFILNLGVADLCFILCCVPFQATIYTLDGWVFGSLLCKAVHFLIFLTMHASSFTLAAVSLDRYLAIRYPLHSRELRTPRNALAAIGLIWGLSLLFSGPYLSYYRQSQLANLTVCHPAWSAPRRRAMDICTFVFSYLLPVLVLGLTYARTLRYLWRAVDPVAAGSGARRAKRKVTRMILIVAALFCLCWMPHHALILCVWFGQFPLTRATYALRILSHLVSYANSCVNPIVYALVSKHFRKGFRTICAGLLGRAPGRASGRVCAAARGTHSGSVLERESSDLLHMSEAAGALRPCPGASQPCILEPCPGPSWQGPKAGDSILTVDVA
# [12] = target: 168 GPCRs (Homo sapiens, UniProt P43088); experiment: as above; conditions: PTGFR, Antagonist mode, 10 uM
# Chain of 168 GPCRs (Homo sapiens, UniProt P43088) (P43088 whole entry): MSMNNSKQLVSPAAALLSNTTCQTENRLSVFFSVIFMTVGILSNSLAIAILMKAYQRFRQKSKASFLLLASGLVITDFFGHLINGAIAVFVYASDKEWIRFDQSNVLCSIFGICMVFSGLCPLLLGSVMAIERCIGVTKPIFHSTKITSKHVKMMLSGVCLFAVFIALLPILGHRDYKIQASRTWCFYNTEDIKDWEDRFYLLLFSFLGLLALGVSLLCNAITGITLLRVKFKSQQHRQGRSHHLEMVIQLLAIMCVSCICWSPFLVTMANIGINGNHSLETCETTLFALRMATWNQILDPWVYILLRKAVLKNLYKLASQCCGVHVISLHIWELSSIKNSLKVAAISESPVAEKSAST
# [13] = target: 168 GPCRs (Homo sapiens, UniProt Q16581); experiment: as above; conditions: C3AR1, Antagonist mode, 10 uM
# Chain of 168 GPCRs (Homo sapiens, UniProt Q16581) (Q16581 whole entry): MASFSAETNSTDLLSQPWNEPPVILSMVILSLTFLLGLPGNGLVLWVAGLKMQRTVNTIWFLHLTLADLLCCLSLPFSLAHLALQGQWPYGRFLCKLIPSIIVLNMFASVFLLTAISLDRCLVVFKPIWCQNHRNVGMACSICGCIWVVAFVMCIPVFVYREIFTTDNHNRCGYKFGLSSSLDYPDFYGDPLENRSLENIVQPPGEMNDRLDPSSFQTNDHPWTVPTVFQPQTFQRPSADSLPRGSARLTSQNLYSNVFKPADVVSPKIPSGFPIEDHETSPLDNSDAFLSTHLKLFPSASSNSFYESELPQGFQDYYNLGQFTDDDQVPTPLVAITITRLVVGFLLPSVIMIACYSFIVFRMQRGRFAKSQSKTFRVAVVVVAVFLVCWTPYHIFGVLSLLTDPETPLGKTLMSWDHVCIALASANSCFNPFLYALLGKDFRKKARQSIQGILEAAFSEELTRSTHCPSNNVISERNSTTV
# [14] = target: 168 GPCRs (Homo sapiens, UniProt P51685); experiment: as above; conditions: CCR8, Antagonist mode, 10 uM
# Chain of 168 GPCRs (Homo sapiens, UniProt P51685) (P51685 whole entry): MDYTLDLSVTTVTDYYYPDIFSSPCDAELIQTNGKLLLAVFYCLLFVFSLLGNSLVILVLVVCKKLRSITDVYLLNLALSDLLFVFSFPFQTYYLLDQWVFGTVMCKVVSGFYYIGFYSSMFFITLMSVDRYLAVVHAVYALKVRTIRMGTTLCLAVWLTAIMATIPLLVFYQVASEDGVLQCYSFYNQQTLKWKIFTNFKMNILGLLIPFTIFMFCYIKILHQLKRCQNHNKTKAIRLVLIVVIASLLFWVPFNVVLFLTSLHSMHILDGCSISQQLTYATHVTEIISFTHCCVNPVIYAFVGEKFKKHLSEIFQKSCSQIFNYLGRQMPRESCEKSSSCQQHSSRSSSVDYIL
# [15] = target: 168 GPCRs (Homo sapiens, UniProt P08588); experiment: as above; conditions: ADRB1, Antagonist mode, 10 uM
# Chain of 168 GPCRs (Homo sapiens, UniProt P08588) (P08588 whole entry): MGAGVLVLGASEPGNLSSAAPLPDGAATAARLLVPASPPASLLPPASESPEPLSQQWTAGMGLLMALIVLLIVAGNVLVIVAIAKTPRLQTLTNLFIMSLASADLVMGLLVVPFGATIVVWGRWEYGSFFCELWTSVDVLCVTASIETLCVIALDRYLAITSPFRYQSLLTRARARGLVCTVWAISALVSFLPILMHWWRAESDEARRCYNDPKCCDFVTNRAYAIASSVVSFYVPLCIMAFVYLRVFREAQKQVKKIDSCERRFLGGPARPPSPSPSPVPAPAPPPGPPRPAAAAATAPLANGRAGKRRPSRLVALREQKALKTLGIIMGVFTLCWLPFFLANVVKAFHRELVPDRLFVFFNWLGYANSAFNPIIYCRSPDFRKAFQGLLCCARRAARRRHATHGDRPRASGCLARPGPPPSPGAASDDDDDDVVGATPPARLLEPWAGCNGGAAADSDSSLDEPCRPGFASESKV
# [16] = Cued fear conditioning / extinction training and recall; assay type: in vivo, mouse
# Experimental: Methods: Cued fear conditioning was performed in C57BL/6J mice. On day 1, animals were placed in the chambers and presented with a training session (CS-US pairing). The training consisted of a 2-minute habituation followed by a 30-second, 80 dB tone; during the last 2 seconds of the tone animals received a 1 mA foot shock. This US-CS procedure occurred once for a total of one paired presentation of tone and shock. Freezing behavior (immobility) was recorded in 5-10-see intervals during the session. Percent baseline freezing behavior was determined in the 2-minute habituation period. On day 3, animals were placed in context B, in which tactile and odor cues differed from context A. Following a 2 minute acclimation period animals received 4×30 sec presentations of the CS (tone) in the absence of the US (footshock), with a 45 sec interval between presentations. Freezing was recorded in 5-10-sec intervals to measure baseline freezing response to the altered context, and freezing response to each tone cuc presentation. […] On day 4 (Post-Extinction Testing in Drug-Free State), animals were placed in Context B. Following a 2 min acclimation period, animals received 4×30 sec extinction tone duration presentations of the CS (tone) in the absence of the US (footshock), with a 45 sec interval between presentations. Freezing was recorded in 5-10-sec intervals to measure baseline freezing response to the altered context, and freezing response to each tone cue presentation.
smiles,measurement,setting,value
"CNC(C)C(=O)c1ccc2c(c1)OCO2 (centres unmarked) [Methylone, 3,4-methylenedioxy-N-methylcathinone]",Total Degradation Products,[1]; 2 Week 25° C. 60% RH,<LOQ
same,Total Degradation Products,[1]; 2 Week 40° C. 75% RH,<LOQ
same,Total Degradation Products,[1]; 4 Week 25° C. 60% RH,<LOQ
same,Total Degradation Products,[1]; 8 Week 25° C. 60% RH,<LOQ
same,Total Degradation Products,"[1]; t = 0, LOQ ≥ 0.1%",<LOQ
same,Agonist % activity (greatest activity detected),[2],13.9%
same,Cmax (geometric mean),"[3]; 50 mg oral, N = 3",151.2 ng/mL
same,AUC10hr (geometric mean),[3]; 50 mg oral,725 ng·h/mL
same,AUC24hr (geometric mean),[3]; 50 mg oral,988 ng·h/mL
same,AUCinf (geometric mean),[3]; 50 mg oral,1062 ng·h/mL
same,Half-life (geometric mean),[3]; 50 mg oral,6.2 h
same,Tmax (median),[3]; 50 mg oral,1.5 h
same,Cmax (geometric mean),"[3]; 100 mg oral, N = 6",283.9 ng/mL
same,AUC10hr (geometric mean),[3]; 100 mg oral,1554 ng·h/mL
same,AUC24hr (geometric mean),[3]; 100 mg oral,2232 ng·h/mL
same,AUCinf (geometric mean),[3]; 100 mg oral,2410 ng·h/mL
same,Half-life (geometric mean),[3]; 100 mg oral,6.0 h
same,Tmax (median),[3]; 100 mg oral,2.5 h
same,Cmax (geometric mean),"[3]; 150 mg oral, N = 5",340.2 ng/mL
same,AUC10hr (geometric mean),[3]; 150 mg oral,2153 ng·h/mL
same,AUC24hr (geometric mean),[3]; 150 mg oral,3165 ng·h/mL
same,AUCinf (geometric mean),[3]; 150 mg oral,3509 ng·h/mL
same,Half-life (geometric mean),[3]; 150 mg oral,6.7 h
same,Cmax (geometric mean),"[3]; 200 mg oral, N = 7",594.2 ng/mL
same,AUC10hr (geometric mean),[3]; 200 mg oral,3261 ng·h/mL
same,AUC24hr (geometric mean),[3]; 200 mg oral,4676 ng·h/mL
same,AUCinf (geometric mean),[3]; 200 mg oral,5116 ng·h/mL
same,Half-life (geometric mean),[3]; 200 mg oral,6.5 h
same,Time to reach maximum concentrations (Tmax),[3]; oral 50 mg to 200 mg,1 to 2 h
same,half-life,[3]; oral 50 mg to 200 mg,6 to 7 h
same,% Activity,"[4]; PTHR2, Antagonist mode, 10 uM",−0.2%
same,% Activity,"[4]; PTHR2, Antagonist, 1 uM",−1%
same,% Activity,[5],−2.6%
same,% Activity,[6],2.9%
same,% Activity,[7],−0.4%
same,% Activity,[8],−3.4%
same,% Activity,[9],7%
same,% Activity,"[10]; AGTR1, Antagonist mode, 10 uM",−1.4%
same,% Activity,"[10]; AGTR1, Antagonist, 1 uM",3.3%
same,% Activity,[11],1.5%
same,% Activity,[12],0%
same,% Activity,[13],0.3%
same,% Activity,[14],−0.3%
same,% Activity,[15],−1.2%
same,Persistence of effect post dose,[16]; 30 mg/kg IP,at least 11 days
same,Effect on fear extinction training and testing,"[16]; 30 mg/kg IP, 30 min before extinction training on Day 3","rapid, robust and long-lasting beneficial effect on fear extinction training and testing"
same,Fear extinction training on day 3,"[16]; 10, 20 or 30 mg/kg IP",All doses significantly improved fear extinction training on day 3
